Source: ChEMBL document CHEMBL1201862, “PubChem BioAssay data set” (2004)
Calls of active or inactive are those of the source.

Legend:
[1] = biological target: T1, Fatty acid synthase (Homo sapiens, UniProt P49327); experiment: FAS thioesterase domain inhibitors, dose response, biochemical, endpoint fluorescence intensity, uHTS hits (AID 624327); type: functional;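 also: fluorescence from hydrolysis of an O-methyl fluorescein acyl ester substrate by the enzyme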
[2] = biological target: T1, Fatty acid synthase; experiment: FAS thioesterase domain inhibitors, dose response, biochemical, kinetic fluorescence intensity (AID 624326); type: functional;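 also: rate of fluorescence rise from hydrolysis of a fluorogenic O-methyl fluorescein ester substrate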
[3] = biological target: T2, Zinc finger protein mex-5 (Caenorhabditis elegans, UniProt Q9XUB2); experiment: MEX-5/TCR-2 RNA interaction inhibitors, dose response, biochemical, C. elegans, fluorescence polarization (AID 1960)
T2 sequence (Q9XUB2 whole entry): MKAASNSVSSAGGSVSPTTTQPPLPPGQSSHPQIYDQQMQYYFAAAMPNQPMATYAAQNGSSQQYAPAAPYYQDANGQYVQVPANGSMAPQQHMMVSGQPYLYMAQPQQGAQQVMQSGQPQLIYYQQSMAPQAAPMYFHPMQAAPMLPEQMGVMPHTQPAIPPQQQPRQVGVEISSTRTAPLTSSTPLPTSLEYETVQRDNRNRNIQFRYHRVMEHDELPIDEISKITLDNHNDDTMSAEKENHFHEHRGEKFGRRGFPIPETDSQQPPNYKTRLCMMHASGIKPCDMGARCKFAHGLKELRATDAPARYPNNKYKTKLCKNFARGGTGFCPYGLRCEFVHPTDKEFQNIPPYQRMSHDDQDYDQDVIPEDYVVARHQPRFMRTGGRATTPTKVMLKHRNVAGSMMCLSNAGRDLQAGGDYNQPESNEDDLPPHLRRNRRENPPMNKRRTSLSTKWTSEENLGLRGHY

[4] = biological target: T3, RNA-binding protein pos-1 (Caenorhabditis elegans, UniProt G5EF15); experiment: inhibitors of POS-1/mex-3 RNA binding, dose response, biochemical, fluorescence polarization (AID 1964);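 also: purified POS-1 fused to maltose binding protein made in E. coli; potency of compounds blocking POS-1 binding to fluorescent RNA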
T3 sequence (G5EF15 whole entry): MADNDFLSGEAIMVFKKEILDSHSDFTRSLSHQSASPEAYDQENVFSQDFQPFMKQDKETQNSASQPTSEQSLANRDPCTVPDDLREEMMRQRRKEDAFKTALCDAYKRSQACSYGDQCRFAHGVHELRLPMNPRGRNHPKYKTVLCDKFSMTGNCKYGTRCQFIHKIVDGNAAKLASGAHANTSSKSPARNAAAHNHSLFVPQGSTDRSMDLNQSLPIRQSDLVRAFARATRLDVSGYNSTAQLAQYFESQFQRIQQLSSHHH

[5] = Luminescence Cell-Based Dose Retest to Confirm Inhibitors of Cancer Stem Cells. [Related pubchem assays (depositor defined):AID2717, AID2721]; type: functional; conditions: Homo sapiens
[6] = biological target: T4, Ubiquitin-conjugating enzyme E2 N (Homo sapiens, UniProt P61088); type: functional;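 also: Dose-response confirmation in a TR-FRET assay detecting UBC13-driven polyubiquitin chain formation, inhibition measured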
T4 sequence (P61088 whole entry): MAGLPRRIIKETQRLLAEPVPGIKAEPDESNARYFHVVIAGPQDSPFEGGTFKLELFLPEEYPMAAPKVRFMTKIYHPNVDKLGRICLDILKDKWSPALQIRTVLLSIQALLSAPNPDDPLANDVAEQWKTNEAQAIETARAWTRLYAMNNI

[7] = system: Vero; experiment: cells; type: functional; conditions: Chlorocebus sabaeus
[8] = biological target: T5, Protein RecA (Mycobacterium tuberculosis, UniProt P9WHJ3); experiment: Fluorescence Cell-Free Homogeneous Dose Retest to Identify Inhibitors of RecA-Intein Splicing Activity. [Related pubchem assays (depositor defined):AID2097, AID2223, AID489010, AID492950]; type: functional
T5 sequence (P9WHJ3 whole entry): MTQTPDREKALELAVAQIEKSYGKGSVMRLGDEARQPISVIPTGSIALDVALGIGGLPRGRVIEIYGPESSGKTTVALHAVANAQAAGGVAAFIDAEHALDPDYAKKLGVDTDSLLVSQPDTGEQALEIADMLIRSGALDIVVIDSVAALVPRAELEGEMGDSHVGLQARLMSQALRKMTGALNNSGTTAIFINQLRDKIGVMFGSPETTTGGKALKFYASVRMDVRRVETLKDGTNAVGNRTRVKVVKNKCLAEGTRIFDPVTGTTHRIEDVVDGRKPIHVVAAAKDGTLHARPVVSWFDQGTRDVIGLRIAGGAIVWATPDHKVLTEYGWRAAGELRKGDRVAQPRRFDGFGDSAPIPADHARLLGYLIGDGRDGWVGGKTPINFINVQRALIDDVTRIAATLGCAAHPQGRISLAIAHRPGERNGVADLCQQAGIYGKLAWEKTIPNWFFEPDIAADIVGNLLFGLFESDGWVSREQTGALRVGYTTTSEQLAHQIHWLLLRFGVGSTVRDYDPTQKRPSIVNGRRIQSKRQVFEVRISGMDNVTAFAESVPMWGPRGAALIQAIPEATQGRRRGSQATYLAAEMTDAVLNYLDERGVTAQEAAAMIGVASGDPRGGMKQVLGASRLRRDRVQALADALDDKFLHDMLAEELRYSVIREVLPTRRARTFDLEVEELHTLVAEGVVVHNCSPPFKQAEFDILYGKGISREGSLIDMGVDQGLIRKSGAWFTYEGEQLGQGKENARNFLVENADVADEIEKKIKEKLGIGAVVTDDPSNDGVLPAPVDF

[9] = biological target: T6, Replicative DNA helicase DnaB (Mycobacterium tuberculosis, UniProt P9WMR3); experiment: DnaB intein splicing inhibitors, dose response, biochemical, cell-free fluorescence (AID 449749); type: functional
T6 sequence (P9WMR3 whole entry): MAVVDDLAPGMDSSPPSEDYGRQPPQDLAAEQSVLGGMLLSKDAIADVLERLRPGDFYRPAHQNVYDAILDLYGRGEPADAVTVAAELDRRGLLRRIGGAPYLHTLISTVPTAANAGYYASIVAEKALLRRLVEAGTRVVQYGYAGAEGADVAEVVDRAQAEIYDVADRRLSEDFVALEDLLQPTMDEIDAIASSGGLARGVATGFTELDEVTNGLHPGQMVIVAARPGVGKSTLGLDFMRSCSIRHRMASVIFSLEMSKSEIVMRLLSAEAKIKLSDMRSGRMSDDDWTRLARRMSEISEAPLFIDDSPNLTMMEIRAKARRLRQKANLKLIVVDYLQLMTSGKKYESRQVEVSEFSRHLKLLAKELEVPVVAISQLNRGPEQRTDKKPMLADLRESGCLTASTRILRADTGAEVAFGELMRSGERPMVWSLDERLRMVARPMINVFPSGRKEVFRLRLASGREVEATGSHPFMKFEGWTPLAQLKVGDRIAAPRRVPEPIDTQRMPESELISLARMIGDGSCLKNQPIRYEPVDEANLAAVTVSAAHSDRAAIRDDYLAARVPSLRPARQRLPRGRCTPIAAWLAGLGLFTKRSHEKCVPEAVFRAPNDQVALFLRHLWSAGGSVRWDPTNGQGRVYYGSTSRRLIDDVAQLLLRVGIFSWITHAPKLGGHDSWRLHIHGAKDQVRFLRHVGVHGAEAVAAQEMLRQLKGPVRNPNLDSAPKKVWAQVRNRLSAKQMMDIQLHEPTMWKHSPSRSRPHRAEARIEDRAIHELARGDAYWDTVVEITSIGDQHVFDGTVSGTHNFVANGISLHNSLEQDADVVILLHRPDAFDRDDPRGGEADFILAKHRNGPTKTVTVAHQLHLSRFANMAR

[10] = biological target: Heat shock protein HSP 90-alpha (Homo sapiens, UniProt P07900); type: functional, organism-based
[11] = off-target signal loss in HeLa-CEM21 co-culture – HeLa F-luc CTL cells, cherry-picked, counter-screen for HIV-1 Env fusion inhibitor project, dose response (AID 652040); type: functional, cell-based;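 also: potency for signal decrease marking cytotoxic or nonspecific inhibition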
[12] = inhibitors of clade B AD8 Env fusion, dose response, cell-based, cherry-pick (AID 652062); type: functional;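 also: luciferase signal from cell-cell fusion driven by HIV-1 clade B AD8 Env; potency is for inhibitors of fusion seen as a drop in luminescence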
[13] = cells; type: functional

T1 sequence (P49327 whole entry, the tested form may be a part): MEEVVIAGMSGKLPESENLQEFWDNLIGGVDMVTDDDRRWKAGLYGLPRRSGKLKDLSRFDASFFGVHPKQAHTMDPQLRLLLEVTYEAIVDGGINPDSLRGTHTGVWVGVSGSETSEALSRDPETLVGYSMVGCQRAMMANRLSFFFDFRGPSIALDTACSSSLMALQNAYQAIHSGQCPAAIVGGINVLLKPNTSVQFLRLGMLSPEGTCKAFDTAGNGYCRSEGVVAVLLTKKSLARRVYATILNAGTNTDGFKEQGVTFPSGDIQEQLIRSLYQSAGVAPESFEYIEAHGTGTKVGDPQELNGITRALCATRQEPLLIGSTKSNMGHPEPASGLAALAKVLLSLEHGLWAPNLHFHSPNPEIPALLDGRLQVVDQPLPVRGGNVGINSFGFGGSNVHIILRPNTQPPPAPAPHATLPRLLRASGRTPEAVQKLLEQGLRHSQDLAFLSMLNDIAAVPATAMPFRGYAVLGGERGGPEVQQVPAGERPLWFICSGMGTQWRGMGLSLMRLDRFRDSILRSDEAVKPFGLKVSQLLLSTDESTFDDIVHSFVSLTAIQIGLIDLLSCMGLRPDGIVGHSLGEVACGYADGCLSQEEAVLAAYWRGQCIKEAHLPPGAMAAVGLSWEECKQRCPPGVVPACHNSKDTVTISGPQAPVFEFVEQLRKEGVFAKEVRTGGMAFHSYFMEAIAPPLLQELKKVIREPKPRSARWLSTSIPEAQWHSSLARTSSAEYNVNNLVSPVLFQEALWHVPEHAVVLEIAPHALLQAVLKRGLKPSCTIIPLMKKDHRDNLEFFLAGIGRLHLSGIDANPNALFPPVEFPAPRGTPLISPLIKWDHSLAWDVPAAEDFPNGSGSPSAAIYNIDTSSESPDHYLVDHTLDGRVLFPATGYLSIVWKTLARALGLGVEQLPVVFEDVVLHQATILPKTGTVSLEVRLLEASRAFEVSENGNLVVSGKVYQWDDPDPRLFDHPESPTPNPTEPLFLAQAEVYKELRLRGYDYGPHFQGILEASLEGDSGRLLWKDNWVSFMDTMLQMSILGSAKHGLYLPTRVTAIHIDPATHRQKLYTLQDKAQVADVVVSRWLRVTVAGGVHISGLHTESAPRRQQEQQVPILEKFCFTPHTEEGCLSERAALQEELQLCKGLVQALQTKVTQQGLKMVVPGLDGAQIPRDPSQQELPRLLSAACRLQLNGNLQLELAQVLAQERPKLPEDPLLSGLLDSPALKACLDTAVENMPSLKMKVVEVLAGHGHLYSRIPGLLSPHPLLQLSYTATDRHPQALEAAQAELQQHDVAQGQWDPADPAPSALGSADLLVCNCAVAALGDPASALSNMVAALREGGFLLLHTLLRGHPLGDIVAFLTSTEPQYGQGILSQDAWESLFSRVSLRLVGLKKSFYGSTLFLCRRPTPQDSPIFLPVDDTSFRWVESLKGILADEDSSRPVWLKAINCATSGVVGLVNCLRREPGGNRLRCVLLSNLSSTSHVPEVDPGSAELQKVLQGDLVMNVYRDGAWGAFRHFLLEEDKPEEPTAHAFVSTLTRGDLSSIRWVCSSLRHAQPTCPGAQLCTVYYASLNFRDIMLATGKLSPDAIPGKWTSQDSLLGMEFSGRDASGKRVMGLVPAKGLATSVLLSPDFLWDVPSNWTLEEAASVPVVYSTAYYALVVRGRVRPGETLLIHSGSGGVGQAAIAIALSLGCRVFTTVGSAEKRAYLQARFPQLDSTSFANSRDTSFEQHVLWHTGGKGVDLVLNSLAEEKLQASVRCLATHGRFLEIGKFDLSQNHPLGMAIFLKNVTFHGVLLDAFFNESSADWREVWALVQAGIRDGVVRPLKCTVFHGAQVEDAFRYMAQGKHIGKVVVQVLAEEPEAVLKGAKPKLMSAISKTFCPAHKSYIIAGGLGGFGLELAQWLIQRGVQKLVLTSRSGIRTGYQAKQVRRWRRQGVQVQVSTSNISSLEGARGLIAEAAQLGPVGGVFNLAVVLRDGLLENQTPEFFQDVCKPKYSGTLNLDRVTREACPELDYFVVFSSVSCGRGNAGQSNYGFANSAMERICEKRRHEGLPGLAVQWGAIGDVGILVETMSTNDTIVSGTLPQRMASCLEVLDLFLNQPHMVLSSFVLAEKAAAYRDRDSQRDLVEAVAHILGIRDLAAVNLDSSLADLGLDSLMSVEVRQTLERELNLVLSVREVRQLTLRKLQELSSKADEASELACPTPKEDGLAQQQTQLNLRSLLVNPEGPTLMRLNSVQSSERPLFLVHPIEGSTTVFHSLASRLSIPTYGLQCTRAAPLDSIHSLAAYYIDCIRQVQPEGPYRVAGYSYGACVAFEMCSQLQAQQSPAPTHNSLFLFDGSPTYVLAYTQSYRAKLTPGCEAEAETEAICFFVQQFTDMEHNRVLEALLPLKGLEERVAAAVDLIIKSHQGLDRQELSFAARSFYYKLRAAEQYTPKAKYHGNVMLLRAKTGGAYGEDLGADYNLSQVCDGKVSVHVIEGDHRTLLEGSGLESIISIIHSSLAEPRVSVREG

**Q.** For `CC(=O)N1CCN(S(=O)(=O)c2cccc(C(=O)OCc3ccc(C(C)(C)C)cc3)c2)CC1`, which IC50 [1] is on record?
**A.** Its IC50 is 0.376 µM (active).

**Q.** And the IC50 [2]?
**A.** Its IC50 is 0.205 µM (active).

**Q.** Which EC50 [3] does the source give for `COc1c(O)cccc1[C@@H](O)C1CCN(CCc2ccc(F)cc2)CC1` here?
**A.** The EC50 was 14.1 µM (inconclusive).

**Q.** What about the EC50 [4] of the same compound?
**A.** Its EC50 is 13.8 µM (active).

**Q.** With `COc1ccccc1-c1sc2cc3c(cc2c1C#Cc1cncn1C)OCO3` as the compound, how does the AC50 [5] read?
**A.** The AC50 was 4.18 µM (active).

**Q.** What about the IC50 [6] of the same compound?
**A.** Its IC50 is > 20 µM (inactive).

**Q.** What does the source list for `Cc1ccccc1C(CC(=O)c1cccs1)C(C#N)C#N` (stereo not given)?
**A.** CC50 [7]: 17 µM (active); EC50 [8]: 1.17 µM (active); AC50 [9]: > 380 µM (inconclusive)

**Q.** With `CCc1ccc(S(=O)(=O)c2nnn3c2nc(NCCNC(C)=O)c2ccccc23)cc1` as the compound, how does the IC50 [1] read?
**A.** Its IC50 is 3.84 µM (active).

**Q.** What about the IC50 [2] of the same compound?
**A.** Its IC50 is 3.5 µM (active).

**Q.** Which AC50 [10] does the source give for `O=C1CC(N2CCCN(C3CC(=O)N(c4ccc(F)cc4)C3=O)CC2)C(=O)N1c1ccc(F)cc1` (stereo not given) here?
**A.** Its AC50 is 4.32 µM (active).

**Q.** What does the source list for `O=C(O)CCC(=O)NNc1nc(-c2ccccc2)c2cc(Cl)ccc2n1`?
**A.** EC50 [3]: 9.18 µM (active); EC50 [4]: > 300 µM (not active)

**Q.** Which results are given for `O=C(c1ccccc1F)N1CCN(Cc2cccc(Cl)c2)CC1`?
**A.** AC50 [11]: > 70 µM (inactive); AC50 [12]: 3.83 µM (active)

**Q.** What does the source list for `CC(=O)OCCN(C)c1cc(SC(C)C)c2nonc2c1[N+](=O)[O-]`?
**A.** IC50 [13]: 41.4 µM (active); EC50 [8]: > 380 µM (inactive); AC50 [9]: > 380 µM (inactive)

**Q.** With `COc1ccc(/C=C2/Sc3ccc(C(=O)NCCN4CCCCCC4)cc3NC2=O)cc1` as the compound, how does the IC50 [6] read?
**A.** The IC50 was > 20 µM (inactive).

**Q.** With `COc1ccc2[nH]c(C(=O)N3CCC(CO)(Cc4cccc(C(F)(F)F)c4)CC3)c(C)c2c1` as the compound, how does the CC50 [7] read?
**A.** Its CC50 is > 25 µM (active).

**Q.** Which IC50 [1] does the source give for `O=C(NCc1ccccc1)/C(=C/c1cccc([N+](=O)[O-])c1)NC(=O)c1ccco1` here?
**A.** The IC50 was 4.49 µM (active).

**Q.** What about the IC50 [2] of the same compound?
**A.** Its IC50 is 4.38 µM (active).

**Q.** Which EC50 [3] does the source give for `CCc1ccc(C(=O)NNC(=O)c2ccc(=O)n(C)n2)cc1` here?
**A.** Its EC50 is 6.42 µM (active).

**Q.** And the EC50 [4]?
**A.** Its EC50 is > 300 µM (not active).
